Reference: US5858992A, “Non-reducing saccharides, their preparation and use” (Kabushiki Kaisha Hayashibara Seibutsu Kagaku Kenkyujo, priority 1995, dated 1999)

Columns and labels:
[1] = tested on: Clostridium perfringens JCM 3816; assay type: cell-based; conditions: 0.5 w/v % saccharide in PYF broth, 37° C., 96 hours; free of sugar: -
[2] = tested on: Bacteroides uniformis JCM 5828; assay: Assimilation test by intestinal microorganism; assay type: cell-based; conditions: 0.5 w/v % saccharide in PYF broth, 37° C., 96 hours; free of sugar: -
[3] = tested on: Clostridium ramosum JCM 1298; assay: Assimilation test by intestinal microorganism; assay type: cell-based; conditions: 0.5 w/v % saccharide in PYF broth, 37° C., 96 hours; free of sugar: -
in vitro [4] = conditions: small intestinal mucosa enzyme
Pancreatic juice amylase = biological target: T1, Pancreatic juice amylase (Homo sapiens, UniProt P04746); assay: in vitro
T1 sequence (P04746 16-511): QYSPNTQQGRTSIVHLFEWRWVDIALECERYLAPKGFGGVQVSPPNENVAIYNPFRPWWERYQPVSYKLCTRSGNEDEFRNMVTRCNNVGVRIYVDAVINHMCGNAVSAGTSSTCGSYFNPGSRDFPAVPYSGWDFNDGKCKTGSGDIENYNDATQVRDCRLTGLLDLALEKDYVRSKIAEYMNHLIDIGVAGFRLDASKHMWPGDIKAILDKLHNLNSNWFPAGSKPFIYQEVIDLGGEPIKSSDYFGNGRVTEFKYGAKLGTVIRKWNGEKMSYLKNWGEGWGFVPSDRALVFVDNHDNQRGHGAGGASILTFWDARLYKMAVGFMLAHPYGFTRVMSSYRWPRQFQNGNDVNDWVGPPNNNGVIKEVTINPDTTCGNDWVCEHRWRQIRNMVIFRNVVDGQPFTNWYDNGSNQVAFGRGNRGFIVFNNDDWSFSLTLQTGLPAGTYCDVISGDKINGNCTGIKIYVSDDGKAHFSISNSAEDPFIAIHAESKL

[5] = tested on: Clostridium butyricum JCM 1391; assay type: cell-based; conditions: 0.5 w/v % saccharide in PYF broth, 37° C., 96 hours; free of sugar: -
[6] = tested on: Bacteroides distasonis JCM 5825; assay: Assimilation test by intestinal microorganism; assay type: cell-based; conditions: 0.5 w/v % saccharide in PYF broth, 37° C., 96 hours; free of sugar: -
[7] = tested on: Bifidobacterium infantis JCM 1222; assay: Assimilation test by intestinal microorganism; assay type: cell-based; conditions: 0.5 w/v % saccharide in PYF broth, 37° C., 96 hours; free of sugar: -
[8] = tested on: Bifidobacterium breve JCM 1192; assay: Assimilation test by intestinal microorganism; assay type: cell-based; conditions: 0.5 w/v % saccharide in PYF broth, 37° C., 96 hours; free of sugar: -
[9] = tested on: Bifidobacterium longum JCM 1217; assay: Assimilation test by intestinal microorganism; assay type: cell-based; conditions: 0.5 w/v % saccharide in PYF broth, 37° C., 96 hours; free of sugar: -
[10] = tested on: Streptococcus sobrinus ATCC 27351; assay: Acid formation by dental caries-inducing microorganisms; conditions: for pH at each fermentation time (min): living wet cells, 0.02M saccharide, Stephen buffer pH 7.0, 37° C.
glucosyltransferase = assay: Inhibition of insoluble glucan formation by glucosyltransferase from dental caries-inducing microorganism; assay type: biochemical, Streptococcus sobrinus strain (ATCC 27351); conditions: sucrose plus test saccharide (one ml of one w/v % each), 37° C., 16 hours
Procedure: To a mixture solution consisting of one ml of one w/v % sucrose solution, one ml of one w/v % of a test saccharide solution, and 1.5 ml of 0.1M phosphate buffer (pH 6.8) was added 0.5 ml solution containing a crude glucosyltransferase specimen in a total protein content of 10 mg, and the mixture solution was placed in a small test tube which was then fixed and slanted to give a grade 30 degrees and allowed to react at 37° C. for 16 hours. The reaction mixture was transferred gently to another test tube and mixed with a solution obtained by washing carefully with 4 ml water the remaining substances adhered to the inner walls of the small test tube, and the mixture solution was centrifuged to obtain a precipitate as a non-adsorbed glucan. The amounts of the adsorbed- and non-adsorbed glucans thus obtained were respectively quantified by the anthrone-sulfuric acid method, and the total amount of them was regarded as the amount of the formed insoluble glucans. As a control system, a reaction system using water in place of the test saccharide solution, i.e. a reaction system using sucrose as a saccharide, was provided.

[11] = tested on: Bacteroides vulgatus JCM 5826; assay: Assimilation test by intestinal microorganism; assay type: cell-based; conditions: 0.5 w/v % saccharide in PYF broth, 37° C., 96 hours; free of sugar: -
[12] = tested on: Bifidobacterium bifidum JCM 1255; assay: Assimilation test by intestinal microorganism; assay type: cell-based; conditions: 0.5 w/v % saccharide in PYF broth, 37° C., 96 hours; free of sugar: -
Salivary amylase = biological target: T2, Salivary amylase (Homo sapiens, UniProt P0DUB6); assay: in vitro
T2 sequence (P0DUB6 16-511): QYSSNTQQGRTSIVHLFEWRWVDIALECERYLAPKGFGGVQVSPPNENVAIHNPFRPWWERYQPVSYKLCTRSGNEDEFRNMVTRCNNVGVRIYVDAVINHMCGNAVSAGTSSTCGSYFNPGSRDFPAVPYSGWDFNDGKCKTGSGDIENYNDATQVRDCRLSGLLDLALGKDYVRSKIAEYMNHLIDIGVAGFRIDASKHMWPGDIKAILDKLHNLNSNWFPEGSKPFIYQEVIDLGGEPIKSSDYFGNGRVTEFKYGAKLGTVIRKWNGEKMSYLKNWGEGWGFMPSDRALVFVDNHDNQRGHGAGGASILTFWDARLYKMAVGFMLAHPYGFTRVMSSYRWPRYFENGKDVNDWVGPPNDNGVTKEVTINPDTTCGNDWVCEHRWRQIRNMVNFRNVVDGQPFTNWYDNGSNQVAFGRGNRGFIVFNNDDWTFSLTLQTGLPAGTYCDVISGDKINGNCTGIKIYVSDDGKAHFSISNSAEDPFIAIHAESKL

[13] = tested on: Bifidobacterium animalis JCM 1190; assay: Assimilation test by intestinal microorganism; assay type: cell-based; conditions: 0.5 w/v % saccharide in PYF broth, 37° C., 96 hours; free of sugar: -
[14] = tested on: Peptostreptococcus prevotii ATCC 9321; assay: Assimilation test by intestinal microorganism; assay type: cell-based; conditions: 0.5 w/v % saccharide in PYF broth, 37° C., 96 hours; free of sugar: -
[15] = tested on: Lactobacillus fermentum IFO 3959; assay: Assimilation test by intestinal microorganism; assay type: cell-based; conditions: 0.5 w/v % saccharide in PYF broth, 37° C., 96 hours; free of sugar: -
[16] = tested on: Escherichia coli IFO 3301; assay: Assimilation test by intestinal microorganism; assay type: cell-based; conditions: 0.5 w/v % saccharide in PYF broth, 37° C., 96 hours; free of sugar: -
[17] = tested on: Bifidobacterium adolescentis JCM 1275; assay: Assimilation test by intestinal microorganism; assay type: cell-based; conditions: 0.5 w/v % saccharide in PYF broth, 37° C., 96 hours; free of sugar: -
[18] = tested on: Eubacterium aerofaciens ATCC 25986; assay: Assimilation test by intestinal microorganism; assay type: cell-based; conditions: 0.5 w/v % saccharide in PYF broth, 37° C., 96 hours; free of sugar: -
[19] = tested on: Streptococcus faecalis IAM 10065; assay: Assimilation test by intestinal microorganism; assay type: cell-based; conditions: 0.5 w/v % saccharide in PYF broth, 37° C., 96 hours; free of sugar: -
[20] = tested on: Lactobacillus plantarum IFO 3070; assay: Assimilation test by intestinal microorganism; assay type: cell-based; conditions: 0.5 w/v % saccharide in PYF broth, 37° C., 96 hours; free of sugar: -
[21] = Maillard reaction (coloration with glycine); assay type: physicochemical; conditions: 10 w/v % saccharide, one w/v % glycine, 50 mM phosphate buffer pH 7.0, 100° C. for 90 min, 1-cm light-path cell
in vitro [22] = conditions: gastric acid
[23] = tested on: Clostridium sporogenes JCM 1416; assay: Assimilation test by intestinal microorganism; assay type: cell-based; conditions: 0.5 w/v % saccharide in PYF broth, 37° C., 96 hours; free of sugar: ±
Procedure: To evaluate the growth rate of and to judge the assimilability by the microorganisms, the resultant broth was diluted 5-fold, and the turbidity of the dilution was measured at a wavelength of 750 nm in a 1-cm light-path cell. […] The criteria were in Table 3, and the results were in Tables 4 and 5: […]

Row | SMILES | Judgement of assimilation (turbidity at 750 nm, ×5) [1] | Judgement of assimilation (turbidity at 750 nm, ×5) [2] | Judgement of assimilation (turbidity at 750 nm, ×5) [3] | metabolised (Pancreatic juice amylase) [%] | Judgement of assimilation (turbidity at 750 nm, ×5) [6] | Judgement of assimilation (turbidity at 750 nm, ×5) [7] | Judgement of assimilation (turbidity at 750 nm, ×5) [8] | Judgement of assimilation (turbidity at 750 nm, ×5) [9] | pH reduction / acid fermentation, in words [10] | pH at each fermentation time (min) ([10]; 0 min) | pH at each fermentation time (min) ([10]; 5 min) | pH at each fermentation time (min) ([10]; 15 min) | pH at each fermentation time (min) ([10]; 30 min) | pH at each fermentation time (min) ([10]; 60 min) | pH at each fermentation time (min) ([10]; 90 min) | Judgement of assimilation (turbidity at 750 nm, ×5) [11] | Judgement of assimilation (turbidity at 750 nm, ×5) [12] | metabolised (Salivary amylase) [%] | Judgement of assimilation (turbidity at 750 nm, ×5) [13] | Judgement of assimilation (turbidity at 750 nm, ×5) [14] | also measured
1 | OC[C@H]1O[C@H](O[C@H]2O[C@H](CO)[C@@H](O)[C@H](O)[C@H]2O)[C@H](O)[C@@H](O)[C@@H]1O [Trehalose, α,α-trehalose, reference compound] | +++ (0.3 or higher) | ++ (0.2 or higher but less than 0.3) | + (0.15 or higher but less than 0.2) | 0 | ++ (0.2 or higher but less than 0.3) | - (Less than 0.1) | - (Less than 0.1) | ++ (0.2 or higher but less than 0.3) | moderate | 7.0 | 6.7 | 5.3 | 4.7 | 4.3 | 4.2 | + (0.15 or higher but less than 0.2) | + (0.15 or higher but less than 0.2) | 0 | + (0.15 or higher but less than 0.2) | + (0.15 or higher but less than 0.2) | metabolised (in vitro [4]): 1.3%; Judgement of assimilation (turbidity at 750 nm, ×5) [5]: +++ (0.3 or higher); Yield of non-adsorbed glucans (glucosyltransferase; sucrose alone control 923): 1,130 pg/ml; Yield of adsorbed glucans (glucosyltransferase; sucrose alone control 1,160): 772 pg/mL; Inhibitory percentage (%) on insoluble glucans formation (glucosyltransferase; vs sucrose alone): 8.7%; Judgement of assimilation (turbidity at 750 nm, ×5) [15]: + (0.15 or higher but less than 0.2); Judgement of assimilation (turbidity at 750 nm, ×5) [16]: - (Less than 0.1); Judgement of assimilation (turbidity at 750 nm, ×5) [17]: + (0.15 or higher but less than 0.2); Judgement of assimilation (turbidity at 750 nm, ×5) [18]: - (Less than 0.1); Judgement of assimilation (turbidity at 750 nm, ×5) [19]: + (0.15 or higher but less than 0.2); Judgement of assimilation (turbidity at 750 nm, ×5) [20]: ++ (0.2 or higher but less than 0.3); Coloration degree (at a wavelength of 480 nm) [21]: 0.007
2 | OC[C@H]1O[C@H](OC[C@H]2OC(O)[C@H](O)[C@@H](O)[C@@H]2O)[C@H](O)[C@@H](O)[C@@H]1O (stereo partly shown) [Isomaltose, reference compound] | ± (0.1 or higher but less than 0.15) | - (Less than 0.1) | - (Less than 0.1) | 0.2 | + (0.15 or higher but less than 0.2) | +++ (0.3 or higher) | +++ (0.3 or higher) | ++ (0.2 or higher but less than 0.3) | slight | 7.0 | 7.0 | 6.9 | 6.9 | 6.8 | 6.7 | - (Less than 0.1) | + (0.15 or higher but less than 0.2) | 0 | +++ (0.3 or higher) | - (Less than 0.1) | degraded (in vitro [22]): 0%; Judgement of assimilation (turbidity at 750 nm, ×5) [23]: ± (0.1 or higher but less than 0.15); Judgement of assimilation (turbidity at 750 nm, ×5) [15]: - (Less than 0.1); Judgement of assimilation (turbidity at 750 nm, ×5) [16]: - (Less than 0.1); Judgement of assimilation (turbidity at 750 nm, ×5) [17]: +++ (0.3 or higher); Judgement of assimilation (turbidity at 750 nm, ×5) [18]: + (0.15 or higher but less than 0.2); Judgement of assimilation (turbidity at 750 nm, ×5) [19]: + (0.15 or higher but less than 0.2); Judgement of assimilation (turbidity at 750 nm, ×5) [20]: - (Less than 0.1); Coloration degree (at a wavelength of 480 nm) [21]: 0.938
